Source: patent US10787450B2 (BRISTOL-MYERS SQUIBB COMPANY, priority 2016, dated 2020)

These compounds were tested against ROCK2 (Homo sapiens (Human), UniProt O75116) (assay: ROCK2 kinase inhibition assay (FITC peptide substrate, LABCHIP 3000 Reader)). Details: 5 μM ATP, 1.5 μM peptide substrate.
Type: biochemical
Procedure: The effectiveness of compounds of the present invention as ROCK inhibitors can be determined in a 30 μL assay containing 20 mM HEPES, pH 7.5, 20 mM MgCl2, 0.015% Brij-35, 4 mM DTT, 5 μM ATP and 1.5 μM peptide substrate (FITC-AHA-AKRRRLSSLRA-OH) (SEQ ID NO. 1). Compounds were dissolved in DMSO so that the final concentration of DMSO was <2%, and the reaction was initiated with Rho kinase variants. After incubation, the reaction was terminated by the addition of EDTA and the phosphorylated and non-phosphorylated peptides separated using a LABCHIP® 3000 Reader (Caliper Life Sciences). […] Compounds were tested in dose-response format, and the inhibition of kinase activity was calculated at each concentration of compound. The inhibition data were fit using a curve-fitting program to determine the IC50; i.e., the concentration of compound required to inhibit 50% of kinase activity.
Representative examples were tested in the ROCK2 assay described above and found having ROCK2 inhibitory activity.

Sequence of ROCK2 (O75116 whole entry, species assumed): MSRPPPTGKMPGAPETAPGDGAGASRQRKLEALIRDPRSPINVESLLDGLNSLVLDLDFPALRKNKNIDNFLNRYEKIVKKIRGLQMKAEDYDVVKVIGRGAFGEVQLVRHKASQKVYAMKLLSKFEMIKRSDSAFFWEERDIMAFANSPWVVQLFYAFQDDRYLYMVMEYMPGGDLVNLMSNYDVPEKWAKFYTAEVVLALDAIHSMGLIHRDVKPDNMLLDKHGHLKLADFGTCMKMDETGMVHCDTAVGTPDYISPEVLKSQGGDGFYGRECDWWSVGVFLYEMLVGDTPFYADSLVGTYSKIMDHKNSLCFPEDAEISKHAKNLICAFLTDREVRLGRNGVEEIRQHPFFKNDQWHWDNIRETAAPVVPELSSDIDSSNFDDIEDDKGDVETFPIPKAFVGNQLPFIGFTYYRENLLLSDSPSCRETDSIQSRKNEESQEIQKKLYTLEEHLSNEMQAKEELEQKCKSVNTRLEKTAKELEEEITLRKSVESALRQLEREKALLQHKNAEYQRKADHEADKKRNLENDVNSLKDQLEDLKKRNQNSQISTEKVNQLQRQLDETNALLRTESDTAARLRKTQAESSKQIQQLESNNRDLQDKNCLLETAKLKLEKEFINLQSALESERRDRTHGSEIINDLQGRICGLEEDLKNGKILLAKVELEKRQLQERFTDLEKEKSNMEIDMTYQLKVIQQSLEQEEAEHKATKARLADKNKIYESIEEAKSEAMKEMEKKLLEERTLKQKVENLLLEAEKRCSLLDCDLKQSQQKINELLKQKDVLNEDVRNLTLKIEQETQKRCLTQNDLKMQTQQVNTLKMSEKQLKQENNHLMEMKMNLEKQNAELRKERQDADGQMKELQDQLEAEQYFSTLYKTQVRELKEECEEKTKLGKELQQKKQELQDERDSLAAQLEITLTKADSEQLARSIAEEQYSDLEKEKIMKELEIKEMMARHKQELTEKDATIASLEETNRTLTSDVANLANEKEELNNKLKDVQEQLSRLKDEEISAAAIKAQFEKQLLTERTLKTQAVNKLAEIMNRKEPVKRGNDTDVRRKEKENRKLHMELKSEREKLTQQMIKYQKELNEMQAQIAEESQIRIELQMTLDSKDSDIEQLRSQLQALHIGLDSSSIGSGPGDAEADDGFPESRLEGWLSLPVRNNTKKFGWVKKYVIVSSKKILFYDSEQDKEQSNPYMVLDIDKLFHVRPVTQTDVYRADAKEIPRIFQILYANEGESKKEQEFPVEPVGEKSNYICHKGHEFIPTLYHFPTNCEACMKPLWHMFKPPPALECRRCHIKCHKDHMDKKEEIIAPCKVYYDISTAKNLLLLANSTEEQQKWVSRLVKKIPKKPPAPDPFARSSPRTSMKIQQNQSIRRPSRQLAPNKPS

Row | Structure (SMILES) | IC50 [nM]
1 | COc1cccc(C(C)N2C(=O)N(c3ccc(-c4cn[nH]c4)cc3)CC23CC3)c1 (single isomer, unassigned) [Example 2, 6-(4-(1H-pyrazol-4-yl)phenyl)-4-(1-(3-methoxyphenyl)ethyl)-4,6-diazaspiro[2.4]heptan-5-one] | 3 to 30
2 | COc1cccc(C(C)N2C(=O)N(c3ccc(-c4cn[nH]c4)cc3)CC23CC3)c1 (single isomer, unassigned) [Example 3, 6-(4-(1H-pyrazol-4-yl)phenyl)-4-(1-(3-methoxyphenyl)ethyl)-4,6-diazaspiro[2.4]heptan-5-one] | 30 to 250
3 | COc1cccc(CN2C(=O)N(c3ccc(-c4cn[nH]c4)cc3)CC23CCN(CC(C)O)CC3)c1 (single isomer, unassigned) [Example 139, 3-(4-(1H-pyrazol-4-yl)phenyl)-8-(2-hydroxypropyl)-1-(3-methoxybenzyl)-1,3,8-triazaspiro[4.5]decan-2-one] | < 3
4 | COc1cccc(CN2C(=O)N(c3ccc(-c4cn[nH]c4)cc3)CC23CCN(CC(C)O)CC3)c1 (single isomer, unassigned) [Example 140, 3-(4-(1H-pyrazol-4-yl)phenyl)-8-(2-hydroxypropyl)-1-(3-methoxybenzyl)-1,3,8-triazaspiro[4.5]decan-2-one] | < 3
5 | COc1cccc(CN2C(=O)N(c3ccc(-c4cn[nH]c4)cc3)CC23CC3)c1 [Example 1, 6-(4-(1H-pyrazol-4-yl)phenyl)-4-(3-methoxybenzyl)-4,6-diazaspiro[2.4]heptan-5-one] | < 3
6 | CCc1cc(N2CC3(CC3)N(Cc3cc(F)cc(OC)c3)C2=O)ccc1-c1cn[nH]c1 [Example 4, 6-(3-ethyl-4-(1H-pyrazol-4-yl)phenyl)-4-(3-fluoro-5-methoxybenzyl)-4,6-diazaspiro[2.4]heptan-5-one] | 3 to 30
7 | CCc1cc(N2CC3(CC3)N(Cc3cccc(OC)c3)C2=O)ccc1-c1cn[nH]c1 [Example 5, 6-(3-ethyl-4-(1H-pyrazol-4-yl)phenyl)-4-(3-methoxybenzyl)-4,6-diazaspiro[2.4]heptan-5-one] | < 3
8 | COc1cc(CN2C(=O)N(c3ccc(-c4cn[nH]c4)cc3)CC23CC3)ccc1F [Example 6, 6-(4-(1H-pyrazol-4-yl)phenyl)-4-(4-fluoro-3-methoxybenzyl)-4,6-diazaspiro[2.4]heptan-5-one] | < 3
9 | O=C1N(c2ccc(-c3cn[nH]c3)cc2)CC2(CC2)N1Cc1cccc(OCC2CC2)c1 [Example 7, 6-(4-(1H-pyrazol-4-yl)phenyl)-4-(3-(cycloproylmethoxy)benzyl)-4,6-diazaspiro[2.4]heptan-5-one] | 3 to 30
10 | COc1cc(F)cc(CN2C(=O)N(c3ccc(-c4cn[nH]c4)cc3)CC23CC3)c1 [Example 8, 6-(4-(1H-pyrazol-4-yl)phenyl)-4-(3-fluoro-5-methoxybenzyl)-4,6-diazaspiro[2.4]heptan-5-one] | < 3
11 | COc1cccc(CN2C(=O)N(c3ccc(-c4cn[nH]c4)cc3)CC23CCOCC3)c1 [Example 9, 3-(4-(1H-pyrazol-4-yl)phenyl)-1-(3-methoxybenzyl)-8-oxa-1,3-diazaspiro[4.5]decan-2-one] | < 3
12 | COc1cc(F)cc(CN2C(=O)N(c3ccc(-c4cn[nH]c4)cc3)CC23CCOCC3)c1 [Example 10, 3-(4-(1H-pyrazol-4-yl)phenyl)-1-(3-fluoro-5-methoxybenzyl)-8-oxa-1,3-diazaspiro[4.5]decan-2-one] | < 3
13 | O=C1N(c2ccc(-c3cn[nH]c3)cc2)CC2(CCOCC2)N1Cc1cccc(OCC2CC2)c1 [Example 11, 3-(4-(1H-pyrazol-4-yl)phenyl)-1-(3-(cyclopropylmethoxy)benzyl)-8-oxa-1,3-diazaspiro[4.5]decan-2-one] | 3 to 30
14 | O=C1N(c2ccc(-c3cn[nH]c3)cc2)CC2(CCOCC2)N1Cc1ccccc1F [Example 12, 3-(4-(1H-pyrazol-4-yl)phenyl)-1-(2-fluorobenzyl)-8-oxa-1,3-diazaspiro[4.5]decan-2-one] | 30 to 250
15 | O=C1N(c2ccc(-c3cn[nH]c3)cc2)CC2(CCOCC2)N1Cc1cccc(F)c1 [Example 13, 3-(4-(1H-pyrazol-4-yl)phenyl)-1-(3-fluorobenzyl)-8-oxa-1,3-diazaspiro[4.5]decan-2-one] | 3 to 30
16 | N#Cc1cccc(CN2C(=O)N(c3ccc(-c4cn[nH]c4)cc3)CC23CCOCC3)c1 [Example 14, 3-((3-(4-(1H-pyrazol-4-yl)phenyl)-2-oxo-8-oxa-1,3-diazaspiro[4.5]decan-1-yl)methyl)benzonitrile] | 30 to 250
17 | O=C1N(c2ccc(-c3cn[nH]c3)cc2)CC2(CCOCC2)N1Cc1cccc(Cl)c1 [Example 15] | 250 to 3000
18 | O=C1N(c2ccc(-c3cn[nH]c3)cc2)CC2(CCOCC2)N1Cc1cccc(Cl)c1 [Example 16, 3-(4-(1H-pyrazol-4-yl)phenyl)-1-(3-chlorobenzyl)-8-oxa-1,3-diazaspiro[4.5]decan-2-one] | 3 to 30

Row | Structure (SMILES) | IC50 [nM]
19 | O=C1N(c2ccc(-c3cn[nH]c3)cc2)CC2(CCOCC2)N1Cc1ccc(F)c(F)c1 [Example 17, 3-(4-(1H-pyrazol-4-yl)phenyl)-1-(3,4-difluorobenzyl)-8-oxa-1,3-diazaspiro[4.5]decan-2-one] | 3 to 30
20 | O=C1N(c2ccc(-c3cn[nH]c3)cc2)CC2(CCOCC2)N1Cc1cccc(C(F)(F)F)c1 [Example 18, 3-(4-(1H-pyrazol-4-yl)phenyl)-1-(3-(trifluoromethyl)benzyl)-8-oxa-1,3-diazaspiro[4.5]decan-2-one] | 30 to 250
21 | O=C1N(c2ccc(-c3cn[nH]c3)cc2)CC2(CCOCC2)N1Cc1ccc(Cl)c(Cl)c1 [Example 19, 3-(4-(1H-pyrazol-4-yl)phenyl)-1-(3,4-dichlorobenzyl)-8-oxa-1,3-diazaspiro[4.5]decan-2-one] | 30 to 250
22 | O=C1N(c2ccc(-c3cn[nH]c3)cc2)CC2(CCOCC2)N1Cc1cccc(OC(F)(F)F)c1 [Example 20, 3-(4-(1H-pyrazol-4-yl)phenyl)-1-(3-(trifluoromethoxy)benzyl)-8-oxa-1,3-diazaspiro[4.5]decan-2-one] | 30 to 250
23 | O=C1N(c2ccc(-c3cn[nH]c3)cc2)CC2(CCOCC2)N1Cc1ccc(F)cc1F [Example 22, 3-(4-(1H-pyrazol-4-yl)phenyl)-1-(2,4-difluorobenzyl)-8-oxa-1,3-diazaspiro[4.5]decan-2-one] | 30 to 250
24 | O=C1N(c2ccc(-c3cn[nH]c3)cc2)CC2(CCOCC2)N1Cc1c(F)cccc1F [Example 23, 3-(4-(1H-pyrazolo-4-yl)phenyl)-1-(2,6-difluorobenzyl)-8-oxa-1,3-diazaspiro[4.5]decan-2-one] | 250 to 3000
25 | O=C1N(c2ccc(-c3cn[nH]c3)cc2)CC2(CCOCC2)N1Cc1cc(F)cc(F)c1 [Example 24, 3-(4-(1H-pyrazol-4-yl)phenyl)-1-(3,5-difluorobenzyl)-8-oxa-1,3-diazaspiro[4.5]decan-2-one] | 3 to 30
26 | Cc1c(F)cccc1CN1C(=O)N(c2ccc(-c3cn[nH]c3)cc2)CC12CCOCC2 [Example 25, 3-(4-(1H-pyrazol-4-yl)phenyl)-1-(3-fluoro-2-methylbenzyl)-8-oxa-1,3-diazaspiro[4.5]decan-2-one] | < 3
27 | Cc1cc(F)ccc1CN1C(=O)N(c2ccc(-c3cn[nH]c3)cc2)CC12CCOCC2 [Example 26, 3-(4-(1H-pyrazol-4-yl)phenyl)-1-(4-fluoro-2-methylbenzyl)-8-oxa-1,3-diazaspiro[4.5]decan-2-one] | 30 to 250
28 | Cc1ccc(F)cc1CN1C(=O)N(c2ccc(-c3cn[nH]c3)cc2)CC12CCOCC2 [Example 27, 3-(4-(1H-pyrazol-4-yl)phenyl)-1-(5-fluoro-2-methylbenzyl)-8-oxa-1,3-diazaspiro[4.5]decan-2-one] | 30 to 250
29 | COc1cc(F)ccc1CN1C(=O)N(c2ccc(-c3cn[nH]c3)cc2)CC12CCOCC2 [Example 28, 3-(4-(1H-pyrazol-4-yl)phenyl)-1-(4-fluoro-2-methoxybenzyl)-8-oxa-1,3-diazaspiro[4.5]decan-2-one] | 30 to 250
30 | COc1cccc(CN2C(=O)N(c3ccc(-c4cn[nH]c4)cc3)CC23CCOCC3)c1F [Example 29, 3-(4-(1H-pyrazol-4-yl)phenyl)-1-(2-fluoro-3-methoxybenzyl)-8-oxa-1,3-diazaspiro[4.5]decan-2-one] | 30 to 250
31 | O=C1N(c2ccc(-c3cn[nH]c3)cc2)CC2(CCOCC2)N1CC1CCCCC1 [Example 30, 3-(4-(1H-pyrazol-4-yl)phenyl)-1-(cyclohexylmethyl)-8-oxa-1,3-diazaspiro[4.5]decan-2-one] | 30 to 250
32 | CNC(=O)c1cccc(CN2C(=O)N(c3ccc(-c4cn[nH]c4)cc3)CC23CCOCC3)c1 [Example 31, 3-((3-(4-(1H-pyrazol-4-yl)phenyl)-2-oxo-8-oxa-1,3-diazaspiro[4.5]decan-1-yl)methyl)-N-methylbenzamide] | 30 to 250
33 | NC(=O)c1cccc(CN2C(=O)N(c3ccc(-c4cn[nH]c4)cc3)CC23CCOCC3)c1 [Example 32, 3-((3-(4-(1H-pyrazol-4-yl)phenyl)-2-oxo-8-oxa-1,3-diazaspiro[4.5]decan-1-yl)methyl)benzamide] | 30 to 250
34 | O=C(NC1CCC1)c1cccc(CN2C(=O)N(c3ccc(-c4cn[nH]c4)cc3)CC23CCOCC3)c1 [Example 33, 3-((3-(4-(1H-pyrazol-4-yl)phenyl)-2-oxo-8-oxa-1,3-diazaspiro[4.5]decan-1-yl)methyl)-N-cyclobutylbenzamide] | < 3
35 | CC(C)NC(=O)c1cccc(CN2C(=O)N(c3ccc(-c4cn[nH]c4)cc3)CC23CCOCC3)c1 [Example 34, 3-((3-(4-(1H-pyrazol-4-yl)phenyl)-2-oxo-8-oxa-1,3-diazaspiro[4.5]decan-1-yl)methyl)-N-isopropylbenzamide] | 3 to 30
